Reference: patent US20130324532A1 (priority 2011, published 2013)
Like-named read-outs stand apart in the source and are kept apart here.

Columns and labels:
[1] = molecular target: FAK enzyme (catalytic domain, amino acids 411-686) (Homo sapiens, UniProt Q05397); assay: biochemical
[2] = molecular target: N-terminally GST-fused purified FAK enzyme (Homo sapiens, UniProt Q05397); assay: biochemical
Description: Binding parameters of compounds were determined using a Biacore™ S51 sensor. An anti-GST antibody was immobilized onto a CM5 chip by primary amine-coupling in accordance with the manufacturer's recommendations.
Concentration series' of the test compounds were injected over the spots at 25° C.
After the injection cycle of a compound the chip surface was regenerated with 10 mM glycine-HCl, pH2.2 before capturing the enzyme again.

MDA-231-LNA cells = assay: cells; settings: 72 h
[3] = molecular target: T1, VEGFR3 cytoplasmic domain (Homo sapiens, UniProt P35916, DEL949-1002); assay: biochemical
T1 construct: VEGFR3 cytoplasmic domain (amino acids 798-1298) was purchased as N-terminal GST-fusion protein; purchased

[4] = molecular target: VEGFR3 cytoplasmic domain (Homo sapiens, UniProt P35916); assay: biochemical
[5] = molecular target: T2, Phospho VEGFR3 (Flt4) in HMVEC-dLyAD cells (Homo sapiens, UniProt P35916); assay: Flt4 Phospho ELISA assay; assay type: cell-based
T2 construct: host or cells: HMVEC-dLyAD (adult human dermal lymphatic microvascular endothelial cells)
Description: The ability of compounds of the invention to inhibit VEGFR3 within cells can be assessed with an ELISA type assay.
The plates were covered and incubated at room temperature overnight.
300 μL of Blocking buffer (5% v/v Tween 20, 5% w/v sucrose in PBS) was then added to wells and plate incubated for 2 hours at room temperature. Blocking solution is flicked out and plates washed three times and tapped dry.
Compound dilution series were prepared in Endogro basal (Cat # SCME-BM, Millipore)+0.1% BSA (Cat#A8412, Sigma) with constant 0.1% DMSO concentration. 439 μL of sample or vehicle control was added to the cell monolayers.
130 μL of Lysis buffer added to wells and cell lysate harvested and transferred to tubes and stored on ice.
The plates were then washed three times in wash buffer as described above and tapped dry. […]
Total VEGFR3 levels were quantified using a Multiskan Ascent plate reader and Ascent software fitted with 450 nm filter. […]
Phospho VEGFR3 levels were quantified using a Multiscan ascent plate reader and ascent software fitted with 450 nm filter.
where SRP is the Sample Relative Phospho level, SP is Phospho VEGFR3 reading and ST is Total VEGFR3 reading.
Percent inhibition (% I) for each lysate relative to vehicle control (VEGF-C stimulated) is then calculated according to the following formula:
where SRP is the Sample Relative Phospho level as calculated above. […]

[6] = test system: taxane-sensitive (SKOV3ip1 and HeyA8) and taxane-resistant (HeyA8-MDR) ovarian cancer cell lines; settings: in vitro; cited from earlier work
[7] = test system: HeyA8, SKOV3ip1, and HeyA8-MDR models; settings: cited from earlier work

VEGFR3 cytoplasmic domain (Homo sapiens, UniProt P35916), sequence (P35916 other isoform, or with tags, fused parts or gaps): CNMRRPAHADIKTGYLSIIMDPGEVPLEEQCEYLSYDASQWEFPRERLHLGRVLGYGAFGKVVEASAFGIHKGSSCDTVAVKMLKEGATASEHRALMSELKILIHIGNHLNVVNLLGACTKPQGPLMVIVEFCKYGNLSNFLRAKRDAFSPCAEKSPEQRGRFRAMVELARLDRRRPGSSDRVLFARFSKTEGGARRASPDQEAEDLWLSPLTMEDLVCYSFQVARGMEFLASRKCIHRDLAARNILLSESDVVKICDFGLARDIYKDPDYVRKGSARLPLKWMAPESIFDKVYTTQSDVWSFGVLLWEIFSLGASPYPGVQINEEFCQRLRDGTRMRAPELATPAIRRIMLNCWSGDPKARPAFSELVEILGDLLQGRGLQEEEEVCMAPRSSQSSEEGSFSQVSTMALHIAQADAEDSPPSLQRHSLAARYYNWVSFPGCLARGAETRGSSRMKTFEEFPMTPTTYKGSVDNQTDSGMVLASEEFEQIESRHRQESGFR
FAK enzyme (catalytic domain, amino acids 411-686), sequence (Q05397 411-686, species assumed): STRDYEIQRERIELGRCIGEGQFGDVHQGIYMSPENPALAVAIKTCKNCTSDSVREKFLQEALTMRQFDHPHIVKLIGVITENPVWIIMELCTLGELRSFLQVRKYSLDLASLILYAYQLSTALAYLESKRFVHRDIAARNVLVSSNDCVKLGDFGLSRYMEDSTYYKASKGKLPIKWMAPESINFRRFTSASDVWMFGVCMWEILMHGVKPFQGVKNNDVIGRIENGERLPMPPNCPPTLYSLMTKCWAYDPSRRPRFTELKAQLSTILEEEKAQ
N-terminally GST-fused purified FAK enzyme, sequence (Q05397 whole entry, the tested form may be a part): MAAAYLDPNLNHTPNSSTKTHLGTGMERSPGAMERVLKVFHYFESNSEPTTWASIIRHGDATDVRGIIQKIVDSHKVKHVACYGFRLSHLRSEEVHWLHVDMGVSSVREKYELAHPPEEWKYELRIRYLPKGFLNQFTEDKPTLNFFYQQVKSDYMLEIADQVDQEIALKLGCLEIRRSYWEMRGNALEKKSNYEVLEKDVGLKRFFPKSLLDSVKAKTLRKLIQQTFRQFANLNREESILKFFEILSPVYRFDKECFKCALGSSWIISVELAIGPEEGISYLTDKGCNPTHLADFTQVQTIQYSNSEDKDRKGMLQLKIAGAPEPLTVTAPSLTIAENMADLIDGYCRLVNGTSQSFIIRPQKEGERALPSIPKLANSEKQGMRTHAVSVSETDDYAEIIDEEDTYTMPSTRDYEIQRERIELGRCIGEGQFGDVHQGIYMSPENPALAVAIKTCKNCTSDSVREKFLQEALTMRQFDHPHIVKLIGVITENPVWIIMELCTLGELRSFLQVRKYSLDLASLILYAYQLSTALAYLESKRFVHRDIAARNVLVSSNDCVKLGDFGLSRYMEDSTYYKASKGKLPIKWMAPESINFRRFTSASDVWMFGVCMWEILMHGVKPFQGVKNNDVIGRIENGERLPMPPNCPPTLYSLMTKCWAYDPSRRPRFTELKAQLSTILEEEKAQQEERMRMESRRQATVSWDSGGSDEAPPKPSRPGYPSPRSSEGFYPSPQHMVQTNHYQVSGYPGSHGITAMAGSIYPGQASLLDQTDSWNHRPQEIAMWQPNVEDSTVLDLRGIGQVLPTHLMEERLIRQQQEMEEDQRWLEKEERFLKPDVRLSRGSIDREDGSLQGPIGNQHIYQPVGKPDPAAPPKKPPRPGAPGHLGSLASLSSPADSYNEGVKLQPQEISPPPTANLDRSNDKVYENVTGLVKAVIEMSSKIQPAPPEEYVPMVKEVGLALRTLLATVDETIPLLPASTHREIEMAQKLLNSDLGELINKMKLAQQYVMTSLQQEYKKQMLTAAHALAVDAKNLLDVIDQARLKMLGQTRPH
T1 sequence (P35916 with tags, fused parts or gaps DEL949-1002): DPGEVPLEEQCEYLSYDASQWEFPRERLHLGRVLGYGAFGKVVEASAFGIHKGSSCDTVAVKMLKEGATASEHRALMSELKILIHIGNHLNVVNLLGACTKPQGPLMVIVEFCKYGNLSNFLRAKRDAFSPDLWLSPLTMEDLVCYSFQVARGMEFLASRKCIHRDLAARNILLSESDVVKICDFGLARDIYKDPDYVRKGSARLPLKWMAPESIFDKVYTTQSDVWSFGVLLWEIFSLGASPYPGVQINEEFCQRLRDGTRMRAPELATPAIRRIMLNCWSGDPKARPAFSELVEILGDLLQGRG
T2 sequence (P35916 25-1363): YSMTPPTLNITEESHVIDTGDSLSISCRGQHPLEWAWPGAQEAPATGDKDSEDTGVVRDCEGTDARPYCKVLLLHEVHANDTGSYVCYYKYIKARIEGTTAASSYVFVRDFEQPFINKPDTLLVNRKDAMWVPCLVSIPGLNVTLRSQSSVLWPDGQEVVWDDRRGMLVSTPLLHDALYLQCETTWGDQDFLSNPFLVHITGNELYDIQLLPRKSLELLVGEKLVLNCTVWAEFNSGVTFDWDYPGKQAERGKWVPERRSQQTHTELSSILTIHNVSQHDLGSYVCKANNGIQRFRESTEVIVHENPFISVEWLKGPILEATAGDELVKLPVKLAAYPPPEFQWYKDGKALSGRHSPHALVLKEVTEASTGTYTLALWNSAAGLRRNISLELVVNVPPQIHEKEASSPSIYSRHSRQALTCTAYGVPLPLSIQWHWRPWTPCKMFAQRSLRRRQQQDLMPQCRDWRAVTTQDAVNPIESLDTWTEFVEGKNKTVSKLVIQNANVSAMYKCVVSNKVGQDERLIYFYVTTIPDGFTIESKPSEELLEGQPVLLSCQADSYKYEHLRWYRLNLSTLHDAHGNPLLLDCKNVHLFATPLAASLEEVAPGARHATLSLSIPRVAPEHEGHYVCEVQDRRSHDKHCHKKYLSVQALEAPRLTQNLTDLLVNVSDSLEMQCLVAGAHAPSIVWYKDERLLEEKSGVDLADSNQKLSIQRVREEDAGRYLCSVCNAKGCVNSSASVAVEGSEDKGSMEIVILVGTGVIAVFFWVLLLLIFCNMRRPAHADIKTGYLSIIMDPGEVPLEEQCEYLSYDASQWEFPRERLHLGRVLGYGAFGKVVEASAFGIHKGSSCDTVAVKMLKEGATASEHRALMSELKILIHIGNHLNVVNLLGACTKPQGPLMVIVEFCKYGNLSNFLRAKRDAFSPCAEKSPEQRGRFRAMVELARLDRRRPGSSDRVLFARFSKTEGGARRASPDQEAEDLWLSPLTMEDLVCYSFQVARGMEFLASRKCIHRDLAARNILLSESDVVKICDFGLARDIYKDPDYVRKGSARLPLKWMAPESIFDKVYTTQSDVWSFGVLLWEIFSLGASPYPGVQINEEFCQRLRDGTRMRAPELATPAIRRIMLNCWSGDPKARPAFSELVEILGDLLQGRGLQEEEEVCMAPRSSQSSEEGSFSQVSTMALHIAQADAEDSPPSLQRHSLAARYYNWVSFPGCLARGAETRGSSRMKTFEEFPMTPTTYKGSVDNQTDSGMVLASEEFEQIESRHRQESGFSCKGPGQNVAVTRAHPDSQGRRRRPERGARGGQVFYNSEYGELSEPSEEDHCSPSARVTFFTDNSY

| Structure (SMILES) | IC50 [1] [nM] | Kd [2] [nM] | IC50 (MDA-231-LNA cells) [nM] | further results |
| --- | --- | --- | --- | --- |
| NC(=O)Cc1ccccc1CCc1nc(Nc2ccc(N3CCNCC3)cc2)ncc1C(F)(F)F [Compound 1, 2-(2-(2-(2-((4-(piperazin-1-yl)phenyl)amino)-5-(trifluoromethyl)pyrimidin-4-yl)ethyl)phenyl)acetamide] | 2.1 | 0.49 |  |  |
| CN1CCN(c2ccc(Nc3ncc(C(F)(F)F)c(CCc4cccc(C(N)=O)c4)n3)cc2)CC1 [Compound 2, 3-(2-(2-((4-(4-Methylpiperazin-1-yl)phenyl)amino)-5-(trifluoromethyl)pyrimidin-4-yl)ethyl)benzamide] | 2.5 | 1.5 | 3210 | IC50 ([3]; modified form (*): N-terminal Hexa-His-fusion protein, amino acids 818-1177 lacking 949-1002, read-out: IC50): 120 nM |
| CN1CCN(c2ccc(Nc3ncc(C(F)(F)F)c(CCc4ccccc4CC(N)=O)n3)cc2)CC1 [Compound 3] | 1.9 | 0.91 |  |  |
| NC(=O)Cc1ccccc1CCc1nc(Nc2ccc(C3CCCNC3)cc2)ncc1C(F)(F)F (centres unmarked) [Compound 4, 2-(2-(2-(2-((4-(Piperidin-3-yl)phenyl)amino)-5-(trifluoromethyl)pyrimidin-4-yl)ethyl)phenyl)acetamide] | 1.5 | 0.73 |  |  |
| CN1CCN(c2cccc(Nc3ncc(C(F)(F)F)c(CCc4cccc(C(N)=O)c4)n3)c2)CC1 [Compound 6, 3-(2-(2-((3-(4-Methylpiperazin-1-yl)phenyl)amino)-5-(trifluoromethyl)pyrimidin-4-yl)ethyl)benzamide] | 4.2 | 6.3 | 3910 | IC50 [4]: 52 nM |
| NC(=O)Cc1ccccc1CCc1nc(Nc2ccc(C3CCCCN3)cc2)ncc1C(F)(F)F (centres unmarked) [Compound 8, 2-(2-(2-(2-((4-(Piperidin-2-yl)phenyl)amino)-5-(trifluoromethyl)pyrimidin-4-yl)ethyl)phenyl)acetamide] | 6.1 | 1 |  |  |
| CN1CCCCC1c1ccc(Nc2ncc(C(F)(F)F)c(CCc3ccccc3CC(N)=O)n2)cc1 (centres unmarked) [Compound 9] | 7 | 7 |  |  |
| NC(=O)Cc1ccccc1CCc1nc(Nc2ccc(C3CCNCC3)cc2)ncc1C(F)(F)F [Compound 11, 2-(2-(2-(2-((4-(Piperidin-4-yl)phenyl)amino)-5-(trifluoromethyl)pyrimidin-4-yl)ethyl)phenyl)acetamide] | 3 | 0.61 |  |  |
| CC(C(N)=O)c1ccccc1CCc1nc(Nc2ccc(C3CCNCC3)cc2)ncc1C(F)(F)F (centres unmarked) [Compound 12, 2-(2-(2-(2-((4-(Piperidin-4-yl)phenyl)amino)-5-(trifluoromethyl)pyrimidin-4-yl)ethyl)phenyl)propanamide] | 6.3 | 0.92 |  |  |
| CNC(=O)Cc1ccccc1CCc1nc(Nc2ccc(N3CCNCC3)cc2)ncc1C(F)(F)F [Compound 14, N-Methyl-2-(2-(2-(2-((4-(piperazin-1-yl)phenyl)amino)-5-(trifluoromethyl)pyrimidin-4-yl)ethyl)phenyl)acetamide] | 21 | 6.1 | 4490 | IC50 [4]: 101 nM |
| O=C1NCc2cccc(CCc3nc(Nc4ccc(N5CCNCC5)cc4)ncc3C(F)(F)F)c21 [Compound 15, 7-(2-(2-((4-(piperazin-1-yl)phenyl)amino)-5-(trifluoromethyl)pyrimidin-4-yl)ethyl)isoindolin-1-one] | 18 | 5 | 2370 | IC50 ([4]; read-out: IC50): 37 nM |
| CN1CCN(c2cccc(Nc3ncc(C(F)(F)F)c(CCc4ccccc4CC(N)=O)n3)c2)CC1 [Compound 17, 2-(2-(2-(2-((3-(4-Methylpiperazin-1-yl)phenyl)amino)-5-(trifluoromethyl)pyrimidin-4-yl)ethyl)phenyl)acetamide] | 3.4 | 3.5 | 3510 | IC50 [5]: 44 nM; IC50 [4]: 31 nM |
| CNC(=O)Cc1ccccc1CCc1nc(Nc2cccc(N3CCN(C)CC3)c2)ncc1C(F)(F)F [Compound 18] | 13 | 13 | > 5000 | IC50 [4]: 664 nM |
| Cc1ccc(CCc2nc(Nc3ccc(N4CCNCC4)cc3)ncc2C(F)(F)F)cc1C(N)=O [Compound 19, 2-Methyl-5-(2-(2-((4-(piperazin-1-yl)phenyl)amino)-5-(trifluoromethyl)pyrimidin-4-yl)ethyl)benzamide] | 7.7 | 7.8 | 1490 | IC50 [4]: 37 nM |
| NC(=O)Cc1ccccc1CCc1nc(Nc2ccc(N3CCC(N)CC3)cc2)ncc1C(F)(F)F [Compound 20, 2-(2-(2-(2-((4-(4-Aminopiperidin-1-yl)phenyl)amino)-5-(trifluoromethyl)pyrimidin-4-yl)ethyl)phenyl)acetamide] | 0.81 | 0.63 |  |  |
| NC(=O)Cc1ccccc1CCc1nc(Nc2ccc3c(c2)CCNC3)ncc1C(F)(F)F [Compound 21, 2-(2-(2-(2-((1,2,3,4-Tetrahydroisoquinolin-6-yl)amino)-5-(trifluoromethyl)pyrimidin-4-yl)ethyl)phenyl)acetamide] | 2.4 | 0.44 |  |  |
| NC(=O)Cc1ccccc1CCc1nc(Nc2ccc(C3CNCCO3)cc2)ncc1C(F)(F)F (centres unmarked) [Compound 22, 2-(2-(2-(2-((4-(morpholin-2-yl)phenyl)amino)-5-(trifluoromethyl)pyrimidin-4-yl)ethyl)phenyl)acetamide] | 2.8 | 0.99 |  |  |
| NC(=O)Cc1ccccc1CCc1nc(Nc2ccc(CN3CCNCC3)cc2)ncc1C(F)(F)F [Compound 25, 2-(2-(2-(2-((4-(piperazin-1-ylmethyl)phenyl)amino)-5-(trifluoromethyl)pyrimidin-4-yl)ethyl)phenyl)acetamide] |  |  | 2890 |  |
| NC(=O)Cc1nccnc1CCc1nc(Nc2ccc(C3CCNCC3)cc2)ncc1C(F)(F)F [Compound 26, 2-(3-(2-(2-((4-(Piperidin-4-yl)phenyl)amino)-5-(trifluoromethyl)pyrimidin-4-yl)ethyl)pyrazin-2-yl)acetamide] | 20 | 14 |  |  |
| NC(=O)Cc1cncnc1CCc1nc(Nc2ccc(C3CCNCC3)cc2)ncc1C(F)(F)F [Compound 29, 2-(4-(2-(2-((4-(Piperidin-4-yl)phenyl)amino)-5-(trifluoromethyl)pyrimidin-4-yl)ethyl)pyrimidin-5-yl)acetamide] | 11 | 12.1 |  |  |
| CCN1CCC(c2ccc(Nc3ncc(C(F)(F)F)c(CCc4ccccc4CC(N)=O)n3)cc2)CC1 [Compound 31, 2-(2-(2-(2-((4-(1-Ethylpiperidin-4-yl)phenyl)amino)-5-(trifluoromethyl)pyrimidin-4-yl)ethyl)phenyl)acetamide] |  | 1 |  |  |
| CN1CCC(c2ccc(Nc3ncc(C(F)(F)F)c(CCc4cc(C(N)=O)ccn4)n3)cc2)CC1 [Compound 34, 2-(2-(2-((4-(1-Methylpiperidin-4-yl)phenyl)amino)-5-(trifluoromethyl)pyrimidin-4-yl)ethyl)isonicotinamide] | 5.7 | 5 | 7850 | IC50 [3]: 184 nM |
| CN1CCN(Cc2ccc(Nc3ncc(C(F)(F)F)c(CCc4ccccc4CC(N)=O)n3)cc2)CC1 [Compound 36, 2-(2-(2-(2-((4-((4-Methylpiperazin-1-yl)methyl)phenyl)amino)-5-(trifluoromethyl)pyrimidin-4-yl)ethyl)phenyl)acetamide] | 2.3 | 0.48 | 5620 | IC50 [5]: 169 nM; IC50 [4]: 16 nM |
| NC(=O)c1cccc(CCc2nc(Nc3ccc(CN4CCNCC4)cc3)ncc2C(F)(F)F)c1 [Compound 37, 3-(2-(2-((4-(piperazin-1-ylmethyl)phenyl)amino)-5-(trifluoromethyl)pyrimidin-4-yl)ethyl)benzamide] | 15 |  | 2790 | IC50 [4]: 254 nM |
| CNC(=O)c1ccccc1Nc1nc(Nc2ccc(N3CCOCC3)cc2OC)ncc1Cl [TAE226] |  |  |  | phosphorylation of FAK at both Y397 and Y861 sites [6]: inhibited; reduced tumour burden compared with vehicle-treated controls ([7]; TAE226 alone, HeyA8, SKOV3ip1, HeyA8-MDR models): 46-64%; tumour burden reduction ([7]; concomitant administration of TAE226 and docetaxel, all three models): 85-97%; survival in tumour-bearing mice ([7]; in combination with docetaxel): significantly prolonged survival |
